From paper PMC9060491, “Biochemical and structural characterization of an aromatic ring–hydroxylating dioxygenase for terephthalic acid catabolism” (Proceedings of the National Academy of Sciences of the …, 2022)

Assays:
[1] = target: T1, terephthalate dioxygenase (TPADO; TphA2/TphA3) (Comamonas sp., UniProt Q3C1D5); test: HPLC end point, NADH and analog consumption; format: biochemical; conditions: uncoupler, not oxygenated; 90 min in air, limiting NADH, with TphA1 reductase
T1 construct: gene tphA2II; alpha with C-terminal His6, coexpressed with beta from pET-DUET in E. coli; alpha3beta3 heterohexamer, 196 kDa; Rieske [2Fe-2S] and mononuclear Fe(II); with Terephthalate 1,2-dioxygenase, terminal oxygenase component subunit beta
T1 sequence (Q3C1E2 whole entry, one chain of several, further chain): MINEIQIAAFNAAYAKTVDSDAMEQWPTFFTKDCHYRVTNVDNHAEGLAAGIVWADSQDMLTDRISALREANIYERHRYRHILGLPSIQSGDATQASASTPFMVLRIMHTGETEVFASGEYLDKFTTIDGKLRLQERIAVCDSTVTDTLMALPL

TPADO reductase (TphA1) = target: T2, TPADO reductase (TphA1) (Comamonas sp., UniProt Q3C1E0); test: HPLC of TPADO/reductase reaction; format: biochemical; conditions: electron donor in the coupled system with TPADO and TPA; NADPH not used
T2 construct: gene tphA1I; C-terminal His6, expressed in E. coli; plant-type [2Fe-2S], flavin
T2 sequence (Q3C1E0 whole entry): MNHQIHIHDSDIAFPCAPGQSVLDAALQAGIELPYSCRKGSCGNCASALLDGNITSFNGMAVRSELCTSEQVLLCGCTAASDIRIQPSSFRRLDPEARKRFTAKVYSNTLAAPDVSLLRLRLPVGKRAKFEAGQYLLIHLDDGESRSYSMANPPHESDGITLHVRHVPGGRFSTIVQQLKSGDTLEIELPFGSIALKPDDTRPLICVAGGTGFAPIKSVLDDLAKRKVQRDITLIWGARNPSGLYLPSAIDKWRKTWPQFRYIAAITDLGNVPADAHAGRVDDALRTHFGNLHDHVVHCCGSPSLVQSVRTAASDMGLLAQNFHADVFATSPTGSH

[2] = substrate: O=C(O)c1ccc(C(=O)O)cc1; test: steady-state kinetics, Michaelis-Menten fit; format: biochemical, Comamonas sp.; conditions: ambient air (O2 not shown saturating), NADH, with TphA1 reductase

For `O=C(O)c1ccc([N+](=O)[O-])cc1` [4-NBA, 4-nitrobenzoic acid], the “% NADH consumption” value [1] was 100%.

With `NC(=O)C1=CN([C@@H]2O[C@H](COP(=O)(O)OP(=O)(O)OC[C@H]3O[C@@H](n4cnc5c(N)ncnc54)[C@H](O)[C@@H]3O)[C@@H](O)[C@H]2O)C=CC1` [NADH] the “HPLC of TPADO/reductase reaction” value (TPADO reductase (TphA1)) was “specifically in the presence of nicotinamide adenine dinucleotide hydride (NADH) rather than its phosphorylated analog”.

B1: terephthalate dioxygenase (TPADO; TphA2/TphA3) (Comamonas sp.) (protein)
chain: MQESIIQWHGATNTRVPFGIYTDTANADQEQQRIYRGEVWNYLCLESEIPGAGDFRTTFAGETPIVVVRDADQEIYAFENRCAHRGALIALEKSGRTDSFQCVYHAWSYNRQGDLTGVAFEKGVKGQGGMPASFCKEEHGPRKLRVAVFCGLVFGSFSEDVPSIEDYLGPEICERIERVLHKPVEVIGRFTQKLPNNWKLYFENVKDSYHASLLHMFFTTFELNRLSQKGGVIVDESGGHHVSYSMIDRGAKDDSYKDQAIRSDNERYRLKDPSLLEGFEEFEDGVTLQILSVFPGFVLQQIQNSIAVRQLLPKSISSSELNWTYLGYADDSAEQRKVRLKQANLIGPAGFISMEDGAVGGFVQRGIAGAANLDAVIEMGGDHEGSSEGRATETSVRGFWKAYRKHMGQEMQA
notes: alpha with C-terminal His6, coexpressed with beta from pET-DUET in E. coli; alpha3beta3 heterohexamer, 196 kDa; Rieske [2Fe-2S] and mononuclear Fe(II); with Terephthalate 1,2-dioxygenase, terminal oxygenase component subunit beta
B1 gave a Km [2] of 9.6 ± 1 µM and a kcat [2] of 0.2 ± 0.005 s⁻¹.
